Like-named read-outs stand apart in the source and are kept apart here.
Columns and labels:
[1] = target: T1, dopamine D-2 receptors in the rat brain striatum (Rattus norvegicus, UniProt P61169); experiment: Inhibition of binding of 3H-spiperone to dopamine D-2 receptors; conditions: inhibition of binding of 0.5 nM ³H-spiperone, read-out: medium inhibitory concentration IC₅₀
T1 construct: dopamine D-2 receptors in the rat brain striatum; from tissue; host or cells: rat brain striatum

[2] = system: dopamine turnover and metabolism in rat brain striatum; experiment: Antidopaminergic activity: effect on dopamine turnover and metabolism (homovanillic acid level) in rat brain; format: in vivo; conditions: for increase in the concentration of homovanillic acid (% concentration of the metabolite in comparison with the control taken for 100 %): rat brain striatum, oral 80 mg/kg dose; for minimal effective dose: Rattus norvegicus, po, read-out: threshold dose which significantly increased homovanillic acid level
[3] = in vivo; conditions: mouse, po
[4] = Depot neuroleptic evaluation (method not described); format: in vivo; conditions: solution of the base (375 mg/ml) in Miglyol 812
From the text: 2-{4-[2-(2-Chloro-10,11-dihydrodibenzo(b,f)thiepin-10-yloxy)ethyl]piperazin 1-yl} ethanol (compound I-A); succinate 3-{4-[2-(2-Chloro-10,11-dihydrodibenzo(b,f)thiepin-10-yloxy)ethyl]piperazin-1-yl} propanol (I-B); bis(hydrogensuccinate) 1-[2-(2-Chloro-10,11-dihydrodibenzo(b,f)thiepin-10-yloxy)ethyl]-4-methylpiperazine (I-C); bis(hydrogensuccinate) 1-[2-(2-Chloro-10,11-dihydrodibenzo(b,f)thiepin-10-yloxy)ethyl]piperazine (I-D); succinate 2-{4-[2-(2-Chloro-10,11-dihydrodibenzo(b,f)thiepin-10-yloxy)ethyl]piperazin-1-yl} ethyl acetate (I-E); bis(hydrogensuccinate) 2-{4-[2-(2-Chloro 10,11-dihydrodibenzo(b,f)thiepin-10-yloxy)ethyl]piperazin-1-yl} ethyl decanoate (I-F); tested as a solution of the base (375 mg/ml) in Miglyol 812 (Trade Mark).

[5] = system: spontaneous locomotor activity in mice; experiment: Inhibition of spontaneous locomotor activity in mice, photocell method after Dews; format: in vivo; conditions: Mus musculus, oral, read-out: medium inhibitory dose D₅₀
[6] = in vivo; parameters: species or system mice; conditions: mouse, po
Method: (§1) Discoordinating effect (rota-rod test in mice), medium effective dose ED₅₀ 44.0 mg/kg, is still […] than for thioridazine (Taeschler M., Cerletti A., Schweiz.Med. Wochschr. 88, 1216, 1958); this is advantageous. […] Adrenolytic activity in mice is very low: an oral dose as high as 100 mg/kg prevents adrenaline-induced lethality in 20 % of the animals.

[7] = system: apomorphine-induced emesis in dogs; experiment: Inhibition of apomorphine-induced emesis in dogs; format: in vivo; conditions: 10 mg/kg, interval of 4 hours after administration
[8] = system: adrenaline-induced lethality; experiment: Adrenolytic activity in mice (adrenaline-induced lethality); format: in vivo; conditions: oral dose 100 mg/kg
Method: as §1

[9] = system: Maccacus rhesus monkeys; conditions: rhesus monkey, in vivo, po, 10 mg/kg
[10] = target: T2, dopamine D-1 receptors in rat striatum (Rattus norvegicus, UniProt P18901); experiment: Affinity to dopamine D-1 receptors; format: binding
T2 construct: dopamine D-1 receptors in rat striatum; from tissue; host or cells: rat striatum

[11] = Anticholinergic activity in vitro
[12] = Anticholinergic activity in vivo
[13] = system: re-uptake of serotonin; experiment: Inhibition of re-uptake of serotonin in rat brain; format: biochemical
[14] = system: re-uptake of noradrenaline; experiment: Inhibition of re-uptake of noradrenaline in rat brain; format: biochemical
[15] = system: mice; conditions: reference compound, for comparison, literature citation given; cited from earlier work

T1 sequence (P61169 whole entry): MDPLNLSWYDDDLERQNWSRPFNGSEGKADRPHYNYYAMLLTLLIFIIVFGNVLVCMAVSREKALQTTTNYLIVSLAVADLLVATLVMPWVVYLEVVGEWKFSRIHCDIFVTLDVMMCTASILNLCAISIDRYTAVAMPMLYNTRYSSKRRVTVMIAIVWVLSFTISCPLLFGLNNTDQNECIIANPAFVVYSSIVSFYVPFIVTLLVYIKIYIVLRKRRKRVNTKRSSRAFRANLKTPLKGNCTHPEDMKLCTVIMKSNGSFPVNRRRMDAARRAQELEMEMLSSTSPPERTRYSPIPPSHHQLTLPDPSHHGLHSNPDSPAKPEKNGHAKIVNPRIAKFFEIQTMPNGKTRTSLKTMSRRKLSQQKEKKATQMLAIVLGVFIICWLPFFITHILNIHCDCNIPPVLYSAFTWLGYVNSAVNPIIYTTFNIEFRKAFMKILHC
T2 sequence (P18901 whole entry): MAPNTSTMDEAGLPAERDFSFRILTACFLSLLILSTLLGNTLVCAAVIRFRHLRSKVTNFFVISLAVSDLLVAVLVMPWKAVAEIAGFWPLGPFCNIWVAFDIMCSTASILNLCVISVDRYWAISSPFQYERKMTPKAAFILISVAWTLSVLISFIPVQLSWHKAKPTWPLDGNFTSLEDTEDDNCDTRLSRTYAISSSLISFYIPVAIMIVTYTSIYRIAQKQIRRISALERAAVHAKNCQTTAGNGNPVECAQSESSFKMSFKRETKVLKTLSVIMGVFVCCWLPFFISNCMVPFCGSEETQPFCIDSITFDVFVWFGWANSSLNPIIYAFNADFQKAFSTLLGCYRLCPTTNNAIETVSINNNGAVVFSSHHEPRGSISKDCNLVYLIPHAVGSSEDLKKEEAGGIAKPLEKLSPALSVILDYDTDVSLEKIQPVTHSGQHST

CC(=O)OCCN1CCN(CCOC2Cc3cc(Cl)ccc3Sc3ccccc32)CC1 (racemic) [I-E, 2-{4-[2-(2-Chloro-10,11-dihydrodibenzo(b,f)thiepin-10-yloxy)ethyl]piperazin-1-yl} ethyl acetate]
IC50 [1]: 219 nM
increase in the concentration of homovanillic acid (% concentration of the metabolite in comparison with the control taken for 100 %) [2]: 244%
LD50 [3]: 691 mg/kg

CCCCCCCCCC(=O)OCCN1CCN(CCOC2Cc3cc(Cl)ccc3Sc3ccccc32)CC1 (racemic) [I-F, 2-{4-[2-(2 Chloro-10,11-dihydrodibenzo(b,f)thiepin-10-yloxy)ethyl]piperazin-1-yl} ethyl decanoate]
duration of neuroleptic action [4]: substantially prolonged action

OCCN1CCN(CCOC2Cc3cc(Cl)ccc3Sc3ccccc32)CC1 (centres unmarked) [I-A, 2-{4-[2-(2-Chloro-10,11-dihydrodibenzo(b,f)thiepin-10-yloxy)ethyl]piperazin-1-yl} ethanol]
ED50 [5]: 15.7 mg/kg
IC50 [1]: 212 nM
minimal effective dose ([2]; corpus striatum): 20 mg/kg
minimal effective dose ([2]; tuberculum olfactorium): 10 mg/kg
increase in the concentration of homovanillic acid (% concentration of the metabolite in comparison with the control taken for 100 %) [2]: 504%
TD50 [6]: 44 mg/kg
inhibition of apomorphine-induced emesis [7]: inhibitory effect
prevention of adrenaline-induced lethality, share of the animals [8]: 20%
blood pressure [9]: do not affect
general behaviour of the animals [9]: do not affect
heart rhythm (pulse rate) [9]: do not affect
affinity to dopamine D-1 receptors [10]: slight affinity
anticholinergic activity [11]: very low
anticholinergic activity [12]: very low
inhibition of re-uptake of serotonin [13]: weak inhibitor
inhibition of re-uptake of noradrenaline [14]: weak inhibitor
LD50 [3]: 346 mg/kg

OCCCN1CCN(CCOC2Cc3cc(Cl)ccc3Sc3ccccc32)CC1 (centres unmarked) [I-B, 3-{4-[2-(2-Chloro-10,11-dihydrodibenzo(b,f)thiepin-10-yloxy)ethyl]piperazin-1-yl} propanol]
IC50 [1]: 350 nM
LD50 [3]: 618 mg/kg

CN1CCN(CCOC2Cc3cc(Cl)ccc3Sc3ccccc32)CC1 (centres unmarked) [I-C, 1-[2-(2-Chloro-10,11-dihydrodibenzo(b,f)thiepin-10-yloxy)ethyl]-4-methylpiperazine]
IC50 [1]: 264 nM
LD50 [3]: 401 mg/kg

Clc1ccc2c(c1)CC(OCCN1CCNCC1)c1ccccc1S2 (centres unmarked) [I-D, 1-[2-(2-Chloro-10,11-dihydrodibenzo(b,f)thiepin-10-yloxy)ethyl]piperazine]
IC50 [1]: 1000 nM
LD50 [3]: 509 mg/kg

CN1CCN(C2=Nc3cc(Cl)ccc3Nc3ccccc32)CC1 [clozapine, reference compound]
ED50 [5]: 1.05 mg/kg
acute toxicity, LD₅₀ [15]: 199 mg/kg

Reference: patent EP0321100A2, “Piperazine derivatives, their acid addition salts and a process for the preparation of same” (SPOFA spojené podniky pro zdravotnickou vyrobu, priority 1987, dated 1989)
